# Assay results as given in US20250145665A1, “MACROCYCLIC PEPTIDES USEFUL AS MODULATORS OF TNF ALPHA” (Bristol-Myers Squibb Company, priority 2023, published 2025).
# Starred links: 1 amine or outer side, 2 acyl side, 3 side chain; linkers in the order of their positions; H or OH if unused. Positions of bridges follow the written chain, without caps; N, C: chain ends. Non-standard residues stand in square brackets, D forms with d. Residues, ends and D or L forms follow the SMILES beside them. *: point of attachment. Bip(4'-NHCO-C6H4-3-CH2COOH) = N[C@@H](Cc1ccc(-c2ccc(NC(=O)c3cccc(CC(=O)O)c3)cc2)cc1)C(=O)O; Bip(4'-NHCO-C6H4-4-CH2COOH) = N[C@@H](Cc1ccc(-c2ccc(NC(=O)c3ccc(CC(=O)O)cc3)cc2)cc1)C(=O)O; dArg(Nω-CH2C6H4-3-CH2Gua) = N=C(N)NCc1cccc(CNC(=N)NCCC[C@@H](N)C(=O)O)c1; Bip(4'-NH) = O=C([C@H](Cc1ccc(-c2ccc(N[*:3])cc2)cc1)N[*:1])[*:2]; dArg(ω-(3-HO-benzyl)) = N=C(NCCC[C@@H](N)C(=O)O)NCc1cccc(O)c1; Indazole3carbonyl(1-CH2COOH) = O=C(O)Cn1nc(C(=O)*)c2ccccc21; Bip(4'-COOH) = N[C@@H](Cc1ccc(-c2ccc(C(=O)O)cc2)cc1)C(=O)O; Indole3carbonyl(1-CH2COOH) = O=C(O)Cn1cc(C(=O)*)c2ccccc21; dArg(ω-Bn) = N=C(NCCC[C@@H](N)C(=O)O)NCc1ccccc1; Ala(morpholin-4-yl) = N[C@@H](CN1CCOCC1)C(=O)O; Benzoyl(3-OCH2COOH) = O=C(O)COc1cccc(C(=O)*)c1; Bip = N[C@@H](Cc1ccc(-c2ccccc2)cc1)C(=O)O; Cha = N[C@@H](CC1CCCCC1)C(=O)O; Tle = CC(C)(C)[C@H](N)C(=O)O; Sar = CNCC(=O)O
# Target: TNFα (Homo sapiens, UniProt P01375)
# Test: TNF-Induced HEK-Blue Assay
# Format: cell-based
# Details: not given
# Chain of TNFα (P01375 77-233 limits assumed): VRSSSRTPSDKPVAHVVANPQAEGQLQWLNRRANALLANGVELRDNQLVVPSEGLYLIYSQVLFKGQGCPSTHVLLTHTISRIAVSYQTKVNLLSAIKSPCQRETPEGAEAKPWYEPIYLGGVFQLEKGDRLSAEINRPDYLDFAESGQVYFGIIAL
row,Compound,IC50 [nM]
1,CC(C)C[C@@H]1NC(=O)[C@H](CCCNC(=N)N)NC(=O)[C@H](C(C)C)NC(=O)[C@@H]2CCCN2C(=O)[C@H](C(C)C)NC(=O)[C@@H](CCCNC(=N)NCc2cccc(CNC(=N)N)c2)NC(=O)[C@H](CC(=O)O)NC(=O)[C@@H]2CCCN2C(=O)CN(C)C(=O)[C@H](Cc2ccc(-c3ccc(NC(=O)c4cn(CC(=O)O)c5ccccc45)cc3)cc2)NC(=O)[C@H](Cc2ccc(-c3ccccc3)cc2)NC(=O)[C@H](CN2CCOCC2)NC(=O)CSC[C@@H](C(=O)NCC(N)=O)NC1=O [Example 569] ({CH2CO}-[Ala(morpholin-4-yl)][Bip][Bip(4'-NH)](Indole3carbonyl(1-CH2COOH))[Sar]PD[dArg(Nω-CH2C6H4-3-CH2Gua)]VPVRLCG-NH2; thioether N-13),< 50
2,CC(C)C[C@@H]1NC(=O)[C@H](Cc2ccc(O)cc2)NC(=O)[C@H](C(C)C)NC(=O)[C@@H]2CCCN2C(=O)[C@H](C(C)C)NC(=O)[C@@H](CCCNC(=N)NCc2ccccc2)NC(=O)[C@H](CC(=O)O)NC(=O)[C@@H]2CCCN2C(=O)CN(C)C(=O)[C@H](Cc2ccc(-c3ccc(NC(=O)c4nn(CC(=O)O)c5ccccc45)cc3)cc2)NC(=O)[C@H](Cc2ccc(-c3ccc(C(=O)O)cc3)cc2)NC(=O)[C@H](CC2CCCCC2)NC(=O)CSC[C@@H](C(=O)NCC(N)=O)NC1=O [Example 579] ({CH2CO}-[Cha][Bip(4'-COOH)][Bip(4'-NH)](Indazole3carbonyl(1-CH2COOH))[Sar]PD[dArg(ω-Bn)]VPVYLCG-NH2; thioether N-13),< 50

# Same assay, conditions: HEK-Blue-CD40L cells, NF-kB-driven secreted alkaline phosphatase reporter; TNFα 0.5 ng/ml; 18 h; read-out: TNF induced HEK-Blue assay IC50 value
row,Compound,IC50 [nM]
1,CC(C)C[C@@H]1NC(=O)[C@H](CCCNC(=N)N)NC(=O)[C@H](C(C)C)NC(=O)[C@@H]2CCCN2C(=O)[C@H](C(C)C)NC(=O)[C@@H](CCCNC(=N)NCc2cccc(O)c2)NC(=O)[C@H](CC(=O)O)NC(=O)[C@@H]2CCCN2C(=O)CN(C)C(=O)[C@H](Cc2ccc(-c3ccc(NC(=O)c4cccc(CC(=O)O)c4)cc3)cc2)NC(=O)[C@H](Cc2ccc(-c3ccccc3)cc2)NC(=O)[C@H](CN2CCOCC2)NC(=O)CSC[C@@H](C(=O)NCC(N)=O)NC1=O [Example 566] ({CH2CO}-[Ala(morpholin-4-yl)][Bip][Bip(4'-NHCO-C6H4-3-CH2COOH)][Sar]PD[dArg(ω-(3-HO-benzyl))]VPVRLCG-NH2; thioether N-13),< 50
2,CC(C)C[C@@H]1NC(=O)[C@H](CCCNC(=N)N)NC(=O)[C@H](C(C)C)NC(=O)[C@@H]2CCCN2C(=O)[C@H](C(C)C)NC(=O)[C@@H](CCCNC(=N)NCc2cccc(O)c2)NC(=O)[C@H](CC(=O)O)NC(=O)[C@@H]2CCCN2C(=O)CN(C)C(=O)[C@H](Cc2ccc(-c3ccc(NC(=O)c4ccc(CC(=O)O)cc4)cc3)cc2)NC(=O)[C@H](Cc2ccc(-c3ccccc3)cc2)NC(=O)[C@H](CN2CCOCC2)NC(=O)CSC[C@@H](C(=O)NCC(N)=O)NC1=O [Example 567] ({CH2CO}-[Ala(morpholin-4-yl)][Bip][Bip(4'-NHCO-C6H4-4-CH2COOH)][Sar]PD[dArg(ω-(3-HO-benzyl))]VPVRLCG-NH2; thioether N-13),< 50
3,CC(C)C[C@@H]1NC(=O)[C@H](CCCNC(=N)N)NC(=O)[C@H](C(C)C)NC(=O)[C@@H]2CCCN2C(=O)[C@H](C(C)C)NC(=O)[C@@H](CCCNC(=N)NCc2cccc(O)c2)NC(=O)[C@H](CC(=O)O)NC(=O)[C@@H]2CCCN2C(=O)CN(C)C(=O)[C@H](Cc2ccc(-c3ccc(NC(=O)c4cccc(OCC(=O)O)c4)cc3)cc2)NC(=O)[C@H](Cc2ccc(-c3ccccc3)cc2)NC(=O)[C@H](CN2CCOCC2)NC(=O)CSC[C@@H](C(=O)NCC(N)=O)NC1=O [Example 568] ({CH2CO}-[Ala(morpholin-4-yl)][Bip][Bip(4'-NH)](Benzoyl(3-OCH2COOH))[Sar]PD[dArg(ω-(3-HO-benzyl))]VPVRLCG-NH2; thioether N-13),< 50
4,CC(C)C[C@@H]1NC(=O)[C@H](CCCNC(=N)N)NC(=O)[C@H](C(C)C)NC(=O)[C@@H]2CCCN2C(=O)[C@H](C(C)C)NC(=O)[C@@H](CCCNC(=N)NCc2cccc(CNC(=N)N)c2)NC(=O)[C@H](CC(=O)O)NC(=O)[C@@H]2CCCN2C(=O)CN(C)C(=O)[C@H](Cc2ccc(-c3ccc(NC(=O)c4cccc(CC(=O)O)c4)cc3)cc2)NC(=O)[C@H](Cc2ccc(-c3ccccc3)cc2)NC(=O)[C@H](CN2CCOCC2)NC(=O)CSC[C@@H](C(=O)NCC(N)=O)NC1=O [Example 570] ({CH2CO}-[Ala(morpholin-4-yl)][Bip][Bip(4'-NHCO-C6H4-3-CH2COOH)][Sar]PD[dArg(Nω-CH2C6H4-3-CH2Gua)]VPVRLCG-NH2; thioether N-13),50 to 200
5,CC(C)C[C@@H]1NC(=O)[C@H](CCCNC(=N)N)NC(=O)[C@H](C(C)C)NC(=O)[C@@H]2CCCN2C(=O)[C@H](C(C)C)NC(=O)[C@@H](CCCNC(=N)NCc2cccc(CNC(=N)N)c2)NC(=O)[C@H](CC(=O)O)NC(=O)[C@@H]2CCCN2C(=O)CN(C)C(=O)[C@H](Cc2ccc(-c3ccc(NC(=O)c4ccc(CC(=O)O)cc4)cc3)cc2)NC(=O)[C@H](Cc2ccc(-c3ccccc3)cc2)NC(=O)[C@H](CN2CCOCC2)NC(=O)CSC[C@@H](C(=O)NCC(N)=O)NC1=O [Example 571] ({CH2CO}-[Ala(morpholin-4-yl)][Bip][Bip(4'-NHCO-C6H4-4-CH2COOH)][Sar]PD[dArg(Nω-CH2C6H4-3-CH2Gua)]VPVRLCG-NH2; thioether N-13),50 to 200
6,CC(C)C[C@@H]1NC(=O)[C@H](CCCNC(=N)N)NC(=O)[C@H](C(C)C)NC(=O)[C@@H]2CCCN2C(=O)[C@H](C(C)C)NC(=O)[C@@H](CCCNC(=N)NCc2cccc(CNC(=N)N)c2)NC(=O)[C@H](CC(=O)O)NC(=O)[C@@H]2CCCN2C(=O)CN(C)C(=O)[C@H](Cc2ccc(-c3ccc(NC(=O)c4cccc(OCC(=O)O)c4)cc3)cc2)NC(=O)[C@H](Cc2ccc(-c3ccccc3)cc2)NC(=O)[C@H](CN2CCOCC2)NC(=O)CSC[C@@H](C(=O)NCC(N)=O)NC1=O [Example 572] ({CH2CO}-[Ala(morpholin-4-yl)][Bip][Bip(4'-NH)](Benzoyl(3-OCH2COOH))[Sar]PD[dArg(Nω-CH2C6H4-3-CH2Gua)]VPVRLCG-NH2; thioether N-13),< 50
7,CC[C@H](C)[C@@H]1NC(=O)[C@@H](CCCNC(=N)N)NC(=O)[C@H](CC(=O)O)NC(=O)[C@@H]2CCCN2C(=O)CN(C)C(=O)[C@H](Cc2ccc(-c3ccc(NC(=O)c4cccc(OCC(=O)O)c4)cc3)cc2)NC(=O)[C@H](Cc2ccc(-c3ccc(C(=O)O)cc3)cc2)NC(=O)[C@H](CC2CCCCC2)NC(=O)CSC[C@@H](C(=O)NCC(N)=O)NC(=O)[C@H](CC(C)C)NC(=O)[C@H](Cc2cnc[nH]2)NC(=O)[C@H](C(C)C)NC(=O)[C@@H]2CCCN2C1=O [Example 573] ({CH2CO}-[Cha][Bip(4'-COOH)][Bip(4'-NH)](Benzoyl(3-OCH2COOH))[Sar]PD[dR]IPVHLCG-NH2; thioether N-13),50 to 200
8,CC[C@H](C)[C@@H]1NC(=O)[C@@H](CCCNC(=N)N)NC(=O)[C@H](CC(=O)O)NC(=O)[C@@H]2CCCN2C(=O)CN(C)C(=O)[C@H](Cc2ccc(-c3ccc(NC(=O)c4cccc(OCC(=O)O)c4)cc3)cc2)NC(=O)[C@H](Cc2ccc(-c3ccc(C(=O)O)cc3)cc2)NC(=O)[C@H](C(C)(C)C)NC(=O)CSC[C@@H](C(=O)NCC(N)=O)NC(=O)[C@H](CC(C)C)NC(=O)[C@H](Cc2cnc[nH]2)NC(=O)[C@H](C(C)C)NC(=O)[C@@H]2CCCN2C1=O [Example 574] ({CH2CO}-[Tle][Bip(4'-COOH)][Bip(4'-NH)](Benzoyl(3-OCH2COOH))[Sar]PD[dR]IPVHLCG-NH2; thioether N-13),< 50
9,CC[C@H](C)[C@@H]1NC(=O)[C@@H](CCCNC(=N)N)NC(=O)[C@H](CC(=O)O)NC(=O)[C@@H]2CCCN2C(=O)CN(C)C(=O)[C@H](Cc2ccc(-c3ccc(NC(=O)c4cccc(CC(=O)O)c4)cc3)cc2)NC(=O)[C@H](Cc2ccc(-c3ccc(C(=O)O)cc3)cc2)NC(=O)[C@H](C(C)(C)C)NC(=O)CSC[C@@H](C(=O)NCC(N)=O)NC(=O)[C@H](CC(C)C)NC(=O)[C@H](Cc2cnc[nH]2)NC(=O)[C@H](C(C)C)NC(=O)[C@@H]2CCCN2C1=O [Example 575] ({CH2CO}-[Tle][Bip(4'-COOH)][Bip(4'-NHCO-C6H4-3-CH2COOH)][Sar]PD[dR]IPVHLCG-NH2; thioether N-13),50 to 200
10,CC[C@H](C)[C@@H]1NC(=O)[C@@H](CCCNC(=N)N)NC(=O)[C@H](CC(=O)O)NC(=O)[C@@H]2CCCN2C(=O)CN(C)C(=O)[C@H](Cc2ccc(-c3ccc(NC(=O)c4ccc(CC(=O)O)cc4)cc3)cc2)NC(=O)[C@H](Cc2ccc(-c3ccc(C(=O)O)cc3)cc2)NC(=O)[C@H](C(C)(C)C)NC(=O)CSC[C@@H](C(=O)NCC(N)=O)NC(=O)[C@H](CC(C)C)NC(=O)[C@H](Cc2cnc[nH]2)NC(=O)[C@H](C(C)C)NC(=O)[C@@H]2CCCN2C1=O [Example 576] ({CH2CO}-[Tle][Bip(4'-COOH)][Bip(4'-NHCO-C6H4-4-CH2COOH)][Sar]PD[dR]IPVHLCG-NH2; thioether N-13),50 to 200
11,CC[C@H](C)[C@@H]1NC(=O)[C@@H](CCCNC(=N)N)NC(=O)[C@H](CC(=O)O)NC(=O)[C@@H]2CCCN2C(=O)CN(C)C(=O)[C@H](Cc2ccc(-c3ccc(NC(=O)c4cccc(OCC(=O)O)c4)cc3)cc2)NC(=O)[C@H](Cc2ccc(-c3ccc(C(=O)O)cc3)cc2)NC(=O)[C@H](CN2CCOCC2)NC(=O)CSC[C@@H](C(=O)NCC(N)=O)NC(=O)[C@H](CC(C)C)NC(=O)[C@H](Cc2cnc[nH]2)NC(=O)[C@H](C(C)C)NC(=O)[C@@H]2CCCN2C1=O [Example 577] ({CH2CO}-[Ala(morpholin-4-yl)][Bip(4'-COOH)][Bip(4'-NH)](Benzoyl(3-OCH2COOH))[Sar]PD[dR]IPVHLCG-NH2; thioether N-13),50 to 200
12,CC[C@H](C)[C@@H]1NC(=O)[C@@H](CCCNC(=N)N)NC(=O)[C@H](CC(=O)O)NC(=O)[C@@H]2CCCN2C(=O)CN(C)C(=O)[C@H](Cc2ccc(-c3ccc(NC(=O)c4cccc(CC(=O)O)c4)cc3)cc2)NC(=O)[C@H](Cc2ccc(-c3ccc(C(=O)O)cc3)cc2)NC(=O)[C@H](CN2CCOCC2)NC(=O)CSC[C@@H](C(=O)NCC(N)=O)NC(=O)[C@H](CC(C)C)NC(=O)[C@H](Cc2cnc[nH]2)NC(=O)[C@H](C(C)C)NC(=O)[C@@H]2CCCN2C1=O [Example 578] ({CH2CO}-[Ala(morpholin-4-yl)][Bip(4'-COOH)][Bip(4'-NHCO-C6H4-3-CH2COOH)][Sar]PD[dR]IPVHLCG-NH2; thioether N-13),< 50
